Reference: patent publication US4116972A, “Anti-inflammatory 1-oxo-isoindoline derivatives and processes for their preparation” (Fuji Chemical Industry Company Limited, priority 1975, dated 1978)
Read-outs that look alike come from different tables or passages of the source.

Experiments:
stomach [1] = assay: Effect on gastric ulcer, first method (single oral administration); assay type: in vivo, rat (male, Donryu strain); conditions: 18 hours
Method: (§1) Each compound to be tested was suspended in a 0.3% solution of carboxymethylcellulose in physiological saline and administered in an amount of 1 ml per 200 g body weight of the rat. Determination of the occurrence of gastric inflammation and ulceration was calculated by adding the sizes of ulcerated regions (mm^2) of each rat observed within a lattice (width 1 cm, divided into 10 equal parts) of a stereomicroscope. The determination was made on the stomach removed after sacrifice of the animal and then fixed for 10 minutes with 1% formalin.
In a first method, the compound to be tested was administered orally after 24 hours starvation and then, after a further 18 hours, the animal was sacrificed, under ether anaesthesia.

stomach [2] = assay: Effect on gastric ulcer, second method (repeated oral administration); assay type: in vivo, rat (male, Donryu strain)
Method: Male rats of the Donryu strain having a body weight of 150-200 g were starved for 24 hours and the effects of administration of Compound 1 and its aluminium salt (Compound 7) on the occurrence of gastric ulcers were determined, as were the effects of other known anti-inflammatory agents.
as §1
As a second method, first oral administration was effected after 24 hours starvation and a second oral administration was effected after a further 12 hours starvation. Each animal was then sacrificed, under ether anaesthesia, 6 hours after the second administration. This method was employed to observe the effect after repeated administration of the compounds of the invention.

[3] = test system: male rats of the Wistar strain; assay: Analgesic effect, Pressure Method; assay type: in vivo, rat (male
Method: (§2) The rats were tested in groups of six. Only those animals having a normal pain threshold in both hind legs were selected for the tests. The compound to be tested was suspended in 0.3% carboxymethylcellulose aqueous solution and administered orally. […] The analgesic activity was tested by the Pressure Method [Brit. J. […] Int.

[4] = test system: male rats of the Wistar strain; assay: Analgesic effect, Acetic Acid Raising Method; assay type: in vivo, rat (male; set-up: unit not given here
[5] = test system: male rats of the Wistar strain; assay: Analgesic effect, Randall-Selitto Method; assay type: in vivo, rat (male
Method: as §2

Solubility = assay type: physicochemical
[6] = test system: carrageenin-induced oedema; assay: Carrageenin-oedema test in rats (anti-inflammatory activity); assay type: in vivo, rat (male, Wistar strain)
Method: Compound 1 was administered through a stomach tube, in suspension in a 0.3% by weight carboxymethylcellulose aqueous solution, in an amount of 6.25 mg/kg or 12.5 mg/kg to male rats of the Wistar strain having a body weight of 120-130 g. After 1 hour, inflammation was induced by injecting subcutaneously […] of a 1% carrageenin suspension into the plantar tissue of the right hind paw of each rat. Paw oedema was measured volumetrically,immediately before and also every hour for 5 hours after the carrageenin injection, and the response, measured as the oedema effect (E) was calculated by the following equation: […]
where Vo and VT represents the paw volumes O and T after the carrageenin injection, respectively.
The tests were also carried out on a control group of rats to which no anti-inflammatory agent had been administered. Each test was carried out on a group of six rats.
The inhibitory effect was measured by the inhibitory ratio (IR), calculated from the following equation:
IR = […] 100 (%)
where Ec represents the oedema ratio of the control rats and E represents the oedema ratio of the rats treated with Compound 1.
The inhibitory ratio was determined on administration of various amounts of Compound 1 and the results obtained 3 hours after carrageenin injection are shown in Table 1.

Acute toxicity (oral) = assay type: in vivo; conditions: in vivo; for LD50 at 168 h: rat, po
Method: (§3) Compound 1 was administered in the amounts shown in Table 3 to male rats of the Wistar strain having a body weight of 110-130 g. The rats were tested in groups of eight and similar tests were applied to similar groups of female rats. The compound to be tested was suspended in a 0.3% aqueous solution of carboxymethylcellulose and was administered through a stomach tube. The lethal dose 50% (LD50) and credibility limit 95% (CL) were calculated from the lethal effect by the method of Litchield and Wilcoxon [J. Pharmac. Exp. Ther., 96, 99 (1949)]; the lethal effect was expressed as X/n, in which X is the number of animals which were dead one week after administration and n is the total number of animals used in the test.

[7] = test system: rats of the Wistar strain; assay: Acute toxicity (oral); assay type: in vivo; conditions: one week after administration
Method: as §3

[8] = test system: male rats of the Wistar strain; assay: Analgesic effect, overall (Pressure, Acetic Acid Raising and Randall-Selitto methods); assay type: in vivo, rat (male; conditions: oral
Method: as §2

[9] = 200 × 2 mg/kg P.O., Aspirin marked * (significant difference vs phenylbutazone at p = 0.01)
[10] = 50 mg/kg P.O., Compound 7 marked ** (significant difference vs phenylbutazone at p = 0.01)
[11] = 50 × 2 mg/kg P.O., vs phenylbutazone: Compound 1 * (p = 0.01), Compound 7 ** (p = 0.1), 2 mg/kg

With COc1ccc2c(c1)c(CC(=O)O)c(C)n2C(=O)c1ccc(Cl)cc1 [Indomethacin] the “Size of ulcerated region of stomach” value (stomach [1]; 20 mg/kg P.O.) was 8.0 ± 1.22 mm^2 and the “Size of ulcerated region of stomach” value (stomach [2]; 20 × 2 mg/kg P.O.) was 15.3 ± 1.20 mm^2.

In the case of Cc1c(N(C)C)c(=O)n(-c2ccccc2)n1C [Aminopyrine], the “Pressure method, Ratio (average)” value ([3]; 150 mg/kg orally) is reported as 2.02.

For CC(C)Cc1ccc(C(C)C(=O)O)cc1 (centres unmarked) [Ibuprofen], the “Acetic Acid Raising method, a (graded response)” value ([4]; 200 mg/kg orally) was 21.9, the “Acetic Acid Raising method, b (all or none response)” value (from here on “Acetic Acid Raising method, b”) ([4]; 200 mg/kg orally) was 20 and the “Randall-Selitto method, Analgesic index, Inflamed foot” value ([5]; 100 mg/kg orally) was 1.20. The “Randall-Selitto method, Analgesic index, Normal foot” value ([5]; 100 mg/kg orally) was 1.05.

In the case of CC(=O)Oc1ccccc1C(=O)O [Aspirin], the “Size of ulcerated region of stomach” value (stomach [1]; 200 mg/kg P.O.) is reported as 9.7 ± 1.36 mm^2 and the “Size of ulcerated region of stomach” value (stomach [2]; [9]) is reported as 27.2 ± 3.01 mm^2.

With Cc1cccc(Nc2ccccc2C(=O)O)c1C [Mefenamic acid] the “Acetic Acid Raising method, a (graded response)” value ([4]; 150 mg/kg orally) was 45.4 and the “Acetic Acid Raising method, b” value ([4]; 150 mg/kg orally) was 60.

With CC(C(=O)O)c1ccc(N2CC3=C(CC=CC3)C2=O)cc1 (stereo not drawn) [Compound 7, Aluminium α-[4-(1-oxo-4,7-dihydro-2-isoindolinyl)phenyl]propionate] the “Size of ulcerated region of stomach” value (stomach [1]; [10]) was 2.4 ± 0.49 mm^2, the “Size of ulcerated region of stomach” value (stomach [2]; [11]) was 10.3 ± 1.00 mm^2 and the “solubility in dimethyl sulphoxide” value (Solubility; dimethyl sulphoxide) was “slightly soluble”. For the same compound, the “solubility in most organic solvents” value (Solubility; most organic solvents) was “sparingly soluble”.

For CCCCC1C(=O)N(c2ccccc2)N(c2ccccc2)C1=O [Phenylbutazone], the “Acetic Acid Raising method, a (graded response)” value ([4]; 200 mg/kg orally) was 25.8, the “Acetic Acid Raising method, b” value ([4]; 200 mg/kg orally) was 20 and the “Size of ulcerated region of stomach” value (stomach [1]; 200 mg/kg P.O.) was 6.6 ± 1.31 mm^2. For the same compound, the “Size of ulcerated region of stomach” value (stomach [2]; [9]) was 17.2 ± 1.93 mm^2.

In the case of CC(C(=O)O)c1cccc(C(=O)c2ccccc2)c1 (centres unmarked) [Ketoprofen], the “Pressure method, Ratio (average)” value ([3]; 100 mg/kg orally) is reported as 1.40, the “Acetic Acid Raising method, a (graded response)” value ([4]; 100 mg/kg orally) is reported as 53.8 and the “Acetic Acid Raising method, b” value ([4]; 100 mg/kg orally) is reported as 60. The “Randall-Selitto method, Analgesic index, Inflamed foot” value ([5]; 10 mg/kg orally) was 1.20 and the “Randall-Selitto method, Analgesic index, Normal foot” value ([5]; 10 mg/kg orally) was 1.03.

In the case of CC(C(=O)O)c1ccc(N2CC3=C(CC=CC3)C2=O)cc1 (stereo not drawn) [Compound 1, α-[4-(1-oxo-4,7-dihydro-2-isoindolinyl)phenyl]propionic acid], the Inhibitory ratio ([6]; 5 mg/kg oral, 3 hours after carrageenin injection) is reported as 33.2%, the Inhibitory ratio ([6]; 10 mg/kg oral, 3 hours after carrageenin injection) is reported as 57.1% and the Inhibitory ratio ([6]; 20 mg/kg oral, 3 hours after carrageenin injection) is reported as 64.7%. For the same compound, the Inhibitory ratio ([6]; 40 mg/kg oral, 3 hours after carrageenin injection) was 69.0%, the “dose dependence of inhibitory effect (in words)” value ([6]; 5-40 mg/kg, 3 hours after carrageenin injection) was “increased in rough proportion to the amount of Compound 1 administered” and the “inhibitory effect over the first 5 hours (in words)” value ([6]; 6.25 or 12.5 mg/kg oral) was “strong inhibitory effect appeared over the first 5 hours”. For the same compound, the “onset of inhibitory effect (in words)” value ([6]; 6.25 or 12.5 mg/kg oral) was “clearly appeared at the end of the first hour after carrageenin injection”, the ED50 ([6]; 3 h, oral, rat carrageenin oedema, range printed 4.0-30.9 mg/kg, read-out: ED50 (effective dose 50%)) was 11.1 mg/kg and the “inhibitory effect on carrageenin-induced oedema (in words)” value ([6]; rat hind paw oedema) was “particularly strong inhibitory effect”. The “Pressure method, Ratio (average)” value ([3]; 150 mg/kg orally) was 1.36, the “Acetic Acid Raising method, a (graded response)” value ([4]; 100 mg/kg orally) was 21.0 and the “Acetic Acid Raising method, b” value ([4]; 100 mg/kg orally) was 7. For the same compound, the “Randall-Selitto method, Analgesic index, Inflamed foot” value ([5]; 10 mg/kg orally) was 1.21, the “Randall-Selitto method, Analgesic index, Normal foot” value ([5]; 10 mg/kg orally) was 1.04 and the selectivity ratio (Acute toxicity (oral); oral LD50 male rat / ED50 carrageenin oedema rat, read-out: therapeutic index (LD50/ED50)) was 29.6. For the same compound, the LD50 at 168 h (Acute toxicity (oral); female rats, 95% CL (250-476), read-out: LD50, Female) was 345 mg/kg, the LD50 at 168 h (Acute toxicity (oral); male rats, 95% CL (238-453), read-out: LD50, Male) was 328 mg/kg and the “Lethal effect, Female (dead/total)” value ([7]; 180 mg/kg oral) was 1/8. For the same compound, the “Lethal effect, Male (dead/total)” value ([7]; 180 mg/kg oral) was 0/8, the “Lethal effect, Female (dead/total)” value ([7]; 234 mg/kg oral) was 2/8 and the “Lethal effect, Male (dead/total)” value ([7]; 234 mg/kg oral) was 2/8. The “Lethal effect, Female (dead/total)” value ([7]; 304 mg/kg oral) was 3/8, the “Lethal effect, Male (dead/total)” value ([7]; 304 mg/kg oral) was 4/8 and the “Lethal effect, Female (dead/total)” value ([7]; 395 mg/kg oral) was 5/8. For the same compound, the “Lethal effect, Male (dead/total)” value ([7]; 395 mg/kg oral) was 5/8, the “Lethal effect, Female (dead/total)” value ([7]; 514 mg/kg oral) was 6/8 and the “Lethal effect, Male (dead/total)” value ([7]; 514 mg/kg oral) was 6/8. For the same compound, the “Lethal effect, Female (dead/total)” value ([7]; 668 mg/kg oral) was 8/8, the “Lethal effect, Male (dead/total)” value ([7]; 668 mg/kg oral) was 8/8 and the “Size of ulcerated region of stomach” value (stomach [1]; [10]) was 4.1 ± 0.46 mm^2. For the same compound, the “Size of ulcerated region of stomach” value (stomach [2]; [11]) was 11.3 ± 2.00 mm^2 and the “analgesic effect (in words)” value [8] was “weak”.
